“Also recorded” adds a separate entry of the source.
What was measured:
human HCN1 = molecular target: T1, human HCN1 (Homo sapiens, UniProt O60741); assay: Two-electrode voltage clamp of Xenopus oocytes injected with human HCN1 cRNA; format: cell-based; settings: for block of HCN1 currents: Cs+ 3 mM in ND-96
T1 construct: expressed in transfected cells; host or cells: Xenopus laevis oocytes injected with cRNA transcribed from pGEM HE-human HCN1
T1 sequence (O60741 1-890): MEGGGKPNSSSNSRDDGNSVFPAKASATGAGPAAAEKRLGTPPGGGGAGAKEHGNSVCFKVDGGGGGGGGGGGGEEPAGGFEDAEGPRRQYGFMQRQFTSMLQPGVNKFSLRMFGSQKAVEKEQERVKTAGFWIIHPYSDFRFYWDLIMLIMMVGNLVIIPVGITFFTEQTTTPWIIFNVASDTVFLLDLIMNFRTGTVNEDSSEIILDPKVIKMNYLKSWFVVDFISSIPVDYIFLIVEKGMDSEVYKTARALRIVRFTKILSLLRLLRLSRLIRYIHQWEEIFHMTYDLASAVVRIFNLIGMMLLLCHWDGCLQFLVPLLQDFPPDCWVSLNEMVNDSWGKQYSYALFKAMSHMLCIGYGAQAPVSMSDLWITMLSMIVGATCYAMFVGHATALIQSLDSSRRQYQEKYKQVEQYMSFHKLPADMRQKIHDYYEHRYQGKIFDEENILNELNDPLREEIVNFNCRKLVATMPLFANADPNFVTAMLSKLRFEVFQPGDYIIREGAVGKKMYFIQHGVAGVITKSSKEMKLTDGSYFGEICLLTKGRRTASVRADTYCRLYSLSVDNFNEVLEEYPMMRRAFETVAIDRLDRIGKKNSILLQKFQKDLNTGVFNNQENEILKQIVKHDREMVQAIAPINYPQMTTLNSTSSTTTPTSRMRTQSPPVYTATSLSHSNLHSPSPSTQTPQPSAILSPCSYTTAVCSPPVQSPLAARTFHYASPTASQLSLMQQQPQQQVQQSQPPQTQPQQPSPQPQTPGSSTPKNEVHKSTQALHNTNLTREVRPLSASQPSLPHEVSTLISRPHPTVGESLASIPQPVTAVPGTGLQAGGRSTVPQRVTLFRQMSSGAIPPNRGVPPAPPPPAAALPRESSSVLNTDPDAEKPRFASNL

human HCN3 = molecular target: T2, human HCN3 (Homo sapiens, UniProt Q9P1Z3); assay: Whole cell patch clamp of HEK293 cells stably expressing human HCN3; format: cell-based
T2 construct: expressed in transfected cells; host or cells: HEK293 cells stably transfected with hHCN3-pCDNA3.1 Zeo
T2 sequence (Q9P1Z3 1-774): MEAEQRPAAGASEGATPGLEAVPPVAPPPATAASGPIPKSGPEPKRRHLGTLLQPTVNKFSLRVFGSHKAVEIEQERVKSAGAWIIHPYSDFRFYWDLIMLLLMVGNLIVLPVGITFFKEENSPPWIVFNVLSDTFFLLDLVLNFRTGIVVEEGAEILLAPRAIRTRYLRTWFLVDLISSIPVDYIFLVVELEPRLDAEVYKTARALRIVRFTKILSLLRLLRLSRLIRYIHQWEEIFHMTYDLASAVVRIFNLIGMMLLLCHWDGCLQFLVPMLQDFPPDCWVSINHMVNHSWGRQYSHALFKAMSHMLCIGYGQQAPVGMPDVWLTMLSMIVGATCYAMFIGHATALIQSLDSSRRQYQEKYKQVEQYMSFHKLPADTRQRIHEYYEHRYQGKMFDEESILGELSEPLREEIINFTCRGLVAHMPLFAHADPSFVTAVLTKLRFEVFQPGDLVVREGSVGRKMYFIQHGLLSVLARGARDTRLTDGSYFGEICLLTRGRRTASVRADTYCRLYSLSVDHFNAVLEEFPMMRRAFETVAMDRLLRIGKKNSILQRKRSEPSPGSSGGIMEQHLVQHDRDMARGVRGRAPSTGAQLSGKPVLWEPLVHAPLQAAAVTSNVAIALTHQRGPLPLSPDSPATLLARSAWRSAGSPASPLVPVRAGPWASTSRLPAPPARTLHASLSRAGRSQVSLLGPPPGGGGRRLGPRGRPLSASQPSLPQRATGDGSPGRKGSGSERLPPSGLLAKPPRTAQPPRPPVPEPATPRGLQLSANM

Ih in large DRG neurons = assay: Whole cell patch clamp of Ih in acutely dissociated large L5 DRG neurons of SNL and control rats; format: cell-based, rat
[1] = system: spontaneous firing of injured primary afferents (Aβ and Aδ fibers); assay: In vitro single fiber recording of spontaneous (ectopic) discharges in excised dorsal root/DRG/spinal nerve preparations from SNL rats; design: species or system rat
SNL rats = assay: Tactile allodynia (von Frey 50% paw withdrawal threshold) in the SNL (Chung) neuropathic pain model; format: in vivo, rat; settings: i.p.
Protocol: Preparation of SNL (spinal nerve ligation) model: All studies were conducted in keeping with the guidelines of the Institutional Animal Care Committees of the University of California, San Diego and RWJPRI. Male Harlan Sprague-Dawley rats, 100-150 g, were housed in cages with solid bottoms and sawdust bedding, with a 12/12 h reversed light cycle (lights on 2100-900), and allowed free access to food pellets and water. Animals were housed in groups of 2 after surgical interventions. A surgical neuropathy was created as follows, to create a model commonly referred to as the SNL, or spinal nerve ligation model, also commonly referred to as the Chung model. Under isoflurane/oxygen anesthesia, a dorsal midline incision was made from approximately L3-S2. Using a mixture of sharp and blunt dissection, the left L6/S1 posterior interarticular process was exposed and resected to permit adequate visualization of the L6 transverse process, which was gently removed. Careful teasing of the underlying fascia exposed the left L4 and L5 spinal nerves distal to their emergence from the intervertebral foramina. The nerves were gently separated, and the L5 and in some cases either the L4 (for in vitro electrophysiology recordings) or the L6 nerve firmly ligated with 6-0 silk suture material. The wound was then inspected for hemostasis and closed in two layers. Animals with thresholds greater than 4 g were considered unsuccessful preparations(Chaplan et al., (1994) Journal of Neuroscience Methods 53: 55-63).
Behavioral assessment: Behavioral signs of allodynia were documented as follows. Briefly, rats were transferred to a testing cage with a wire mesh bottom and allowed to acclimate for 10-15 minutes. […] Lifting of the paw was recorded as a positive response and the next lightest filament chosen for the next measurement. […]

normal rats = assay: 55° C. hot plate test (latency to paw lick), acute thermally induced pain; format: in vivo, rat; settings: 10 mg/kg i.p.
Protocol: A cutoff of 20 seconds of thermal surface exposure was employed to prevent tissue damage. Drug administration: Normal rats were administered ZD7288, 10 mg/kg, or an equivalent volume of saline, i.p. at time 0. Behavioral assessments were performed at 45, 60 and 75 minutes after drug administration.

CFA-injected rats = assay: Tactile allodynia in the complete Freund's adjuvant (CFA) paw model of inflammatory pain; format: in vivo, rat
[2] = system: rat mild thermal injury model; assay: Spontaneous pain behaviors in the rat mild thermal injury (first-degree burn) model; settings: for suppression of spontaneous pain behaviors: 30 and 60 min; for adverse behavioral effects: morphine 3 mg/kg or ZD7288 10 mg/kg i.p.
[3] = system: preclinical models of neuropathic pain; settings: cited from earlier work
[4] = system: native Ih in normal rat L4 dorsal root ganglion neurons; assay: Whole cell patch clamp of native Ih in dissociated L4 DRG neurons of uninjured rats (lidocaine); format: cell-based; settings: bath-applied at neutral pH
Protocol: Lidocaine was tested for its effect on Ih expressed in dissociated L4 dorsal root ganglion neurons from uninjured rats to determine whether this well known Na channel blocker could have other mechanisms of action.
DRG were extirpated, dissociated and cultured 3-4 days on poly-D-lysine coated coverslips as described in Example 10. Ih was measured using the whole cell configuration of the patch clamp technique according to the methods described in Example 10 with the exception that the pipette solution was the solution used in Example 3. Neurons were challenged with a family of hyperpolarizing voltage pulses (−60 mV to −150 mV in increments of 10 mV) from a holding potential of −50 mV. Ih was determined at the end of 600 msec duration test pulses. Lidocaine was bath-applied at neutral pH and the percent inhibition of control Ih was determined after lidocaine achieved steady state block. Plotted is the steady state current observed at −134 mV as a percent of control after incubation of lidocaine at the indicated concentrations. […] Lidocaine block was reversible. Data were obtained from 3 cells having control Ih densities of −1.5, −2.0 and −2.2 pA/pF.

[5] = system: ectopic firing in injured peripheral nerves; settings: systemically administered; cited from earlier work

SMILES: [Cl-].[Cs+] [Cs^+, CsCl]
- effect on endogenous inward currents of oocytes (human HCN1; Cs+ 3 mM): no effect
- block of HCN1 currents (human HCN1; Ih evoked by stepping to −80 mV, n=3): 94%
- block of HCN1 currents (human HCN1; Ih evoked by stepping to −100 mV, n=3): 92%
- block of HCN1 currents (human HCN1; Ih evoked by stepping to −120 mV, n=3): 90%
- block of low threshold inward currents in HCN1-injected oocytes, reversibility (human HCN1; Cs+ 3 mM, n=3): reversibly blocked
- block of hyperpolarization-induced inward currents (Ih) (human HCN3; 3 mM CsCl): completely blocked
- reversibility of effect on HCN3 currents (human HCN3; Cs+ 3 mM): rapidly reversible
- block of Ih in large DRG neurons (Ih in large DRG neurons; extracellular Cs+ 3 mM): efficacious block

SMILES: CCN(c1ccccc1)c1cc(=NC)n(C)c(C)n1.Cl [ZD7288]
- cells with no detectable Ih after previous bath exposure and wash (human HCN3; ZD7288 50 μM, subsequently washed, previously 6 of 6 cells expressed Ih): 3 of 3
- block of hyperpolarization-induced inward currents (Ih) (human HCN3; ZD7288 50 μM, n=3): 98+/−2%
- reversibility of effect on HCN3 currents (human HCN3; ZD7288 50 μM, washout period of at least 15 min): did not reverse
- effect on spontaneous firing of Aδ fiber ([1]; 100 micromolar): attenuation of firing
- time to complete suppression of ectopic firing, typical Aβ fiber ([1]; 100 micromolar): 3 to 4 min
- conduction blockade of evoked action potentials ([1]; after application of ZD7288): no conduction blockade
- suppression of spontaneous discharges of Aβ fibers ([1]; bath application 100 μM for 5 min): complete suppression; also recorded: completely suppressed
- efficacy of suppression of allodynic responses (% MPE) (SNL rats): 75.7+/−15.4%
- suppression of tactile allodynia (SNL rats; 1, 3, 10 mg/kg): suppressed allodynic responses in a dose-dependent manner; also recorded: blocked in a dose dependent manner; also recorded: suppressed the tactile allodynia
- behavioral adverse effects / motor function (SNL rats; up to 10 mg/kg): No untoward behavioral effects; also recorded: normal motor function; also recorded: without overt adverse effects on behavior
- effect on acute thermally-evoked pain (normal rats): minimal effect
- difference from saline in hot plate latency (normal rats; 45 or 60 min): No statistically significant difference
- difference from saline in hot plate latency (normal rats; 75 min, statistically significant, minor): approximately 15%
- suppression of CFA-induced tactile allodynia (CFA-injected rats; ZD7288 10 mg/kg i.p., 10 mg/kg): suppressed allodynia; also recorded: markedly suppressed
- block of Ih in large DRG neurons (Ih in large DRG neurons; ZD7288 50 μM): efficacious block
- suppression of spontaneous pain behaviors ([2]; ZD7288 10 mg/kg i.p., 10 mg/kg): near complete suppression; also recorded: suppressed spontaneous pain
- adverse behavioral effects [2]: No adverse behavioral effects

SMILES: CCCCN1CCCCC1C(=O)Nc1c(C)cccc1C (stereo not shown) [bupivacaine]
- anti-hyperalgesic activity [3]: does not possess any anti-hyperalgesic activity

SMILES: NCC1(CC(=O)O)CCCCC1 [gabapentin]
- suppression of CFA-induced tactile allodynia (CFA-injected rats; gabapentin 100 mg/kg i.p.): not

SMILES: CC(C)Cc1ccc(C(C)C(=O)O)cc1 (stereo not shown) [ibuprofen]
- suppression of CFA-induced tactile allodynia (CFA-injected rats; ibuprofen 30 mg/kg i.p.): suppressed
- suppression of CFA-induced tactile allodynia (CFA-injected rats; ibuprofen 30 mg/kg i.p., listed as Ibuprofen): some efficacy

SMILES: CCN(CC)CC(=O)Nc1c(C)cccc1C [lidocaine]
- reversibility of block of Ih [4]: reversible
- effect on ectopic firing in injured peripheral nerves [5]: stops the ectopic firing

SMILES: CN1CC[C@]23c4c5ccc(O)c4O[C@H]2[C@@H](O)C=C[C@H]3[C@H]1C5 [morphine]
- suppression of CFA-induced tactile allodynia (CFA-injected rats; morphine 3 mg/kg i.p.): suppressed
- suppression of spontaneous pain behaviors ([2]; morphine 3 mg/kg i.p.): near complete suppression; also recorded: suppressed spontaneous pain
- adverse behavioral effects [2]: No adverse behavioral effects

Reference: patent US20030022813A1, “Treating pain by targeting hyperpolarization-activated, cyclic nucleotide-gated channels” (priority 2001, published 2003)
